# Experimental data published in patent publication US20240076406A1, “SINGLE DOMAIN ANTIBODIES TARGETING CA-IX AS WELL AS COMPOSITIONS COMPRISING SAME” (National Research Council of Canada, priority 2021, published 2024).
# Legend:
# [1] = test system: 67NR^hCA-IX derived spheroids; test: Spheroid growth inhibition, 67NR^hCA-IX; assay type: cell-based, mouse; settings: monitored for 8 days; compared with 67NR derived spheroids
# Excerpt: Spheroid growth inhibition.
# [2] = target: T1, purified hCA-IX ECD dimer (Homo sapiens, UniProt Q16790); test: In vitro rhCA-IX enzyme activity inhibition (4Mu-Ac hydrolysis); assay type: biochemical; settings: [inhibitor] vs. normalized response - variable slope
# T1 construct: in vitro enzyme activity assay using purified hCA-IX ECD dimer
# Method: In vitro rhCA-IX enzyme activity inhibition. In order to examine the functional consequence of the binding of the two sdCA9-VHH antibodies to hCA-IX ECD, antibodies were tested in an in vitro enzyme activity assay using purified hCA-IX ECD dimer and 4-Methylumbelliferyl acetate (4Mu-Ac) as substrate.
# [3] = test system: SKRC59 and SKRC52 cell lines (low and high levels of hCA-IX); test: Cell binding assay, plate format; assay type: cell-based, human; settings: cell line of Table 3 not stated
# Method: Cell binding assays were performed using a plate-based format, binding was expressed as the mean fluorescent intensity per cell area. (control IgG (●), cG250 (▪), sdCA9-1-Fc (▴), and sdCA9-2-Fc (▾)). KD values were determined by plotting fluorescent intensity measured for each condition of the sdCA9-Fc antibodies using Graphpad Prism. cG250 full sized antibody (FSA) and isotype matching IgG FSA were used as bench mark and negative control, respectively.
# Cell binding. […] These cell lines have been used in the literature for the screening of scFv Abs for binding to hCA-IX (Xu et al. 2010). KD values were determined to be in the low nanomolar range, the clinically used cG250 full sized antibody (FSA) was used as a bench mark. An isotype matching hIgG was used as negative control (FIG. 5).
Molecule,"spheroid growth, different concentrations [1]",HillSlope (best fit value) [2],"Kd ([3]; cell binding, text: low nanomolar range, read-out: KD (best-fit value, one site specific binding))","Bmax (best-fit value, one site specific binding) ([3]; mean fluorescent intensity per cell area)"
"NS(=O)(=O)c1ccc(NC(=O)Nc2ccc(F)cc2)cc1 [Clone U104, reference compound]",inhibited spheroid growth in a dose-dependent manner,−0.3305,–,–
"cG250: clinically used anti-CA-IX full sized antibody (FSA), used as bench mark [reference compound]",–,–,1.29 nM,574.6
